Among the data in patent US11279712B2, “Macrocyclic compounds that inhibit MCL-1 protein” (AMGEN INC., priority 2017, dated 2022) are IC50 values, retold here.

For assay [1], the target named is Mcl-1/Bim interaction (recombinant human Mcl-1 residues 171-327) (Homo sapiens (Human), UniProt Q07820). Briefly: Cell Free Mcl-1:Bim Affinity Assay (Mcl-1 HTRF). Type of assay: binding. Particulars: TR-FRET, 0.1 nM Mcl-1(171-327), 0.05 nM biotin-Bim(51-76). In short, it runs like this: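 TR-FRET competition using 0.1 nM His-tagged Mcl-1(171-327), 0.05 nM biotin-Bim(51-76), Eu anti-His and streptavidin-Xlent in 20 mM Hepes pH 7.5, 150 mM NaCl, Brij-35, 1 mM DTT. Compounds pre-incubated 60 min with protein and peptide, then overnight after detection mix; 665/620 nm ratio fitted to four-parameter curves for IC50 (duplicates).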
Chain of Mcl-1/Bim interaction (recombinant human Mcl-1 residues 171-327) (Q07820 171-327): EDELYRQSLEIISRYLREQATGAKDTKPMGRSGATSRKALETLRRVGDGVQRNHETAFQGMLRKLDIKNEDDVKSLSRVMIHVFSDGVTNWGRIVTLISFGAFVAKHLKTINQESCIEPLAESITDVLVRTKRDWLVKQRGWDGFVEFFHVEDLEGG
(In TR-FRET formats the signal depends on donor and acceptor labels being close together.)

Assay [2] deals with OPM-2 human multiple myeloma cell line. Briefly: Cell Viability Assay (OPM-2 10 FBS). Format: cell-based. Particulars: OPM-2 cells, CellTiter-Glo, read-out: OPM-2 10% FBS IC50 IP. The procedure, abridged: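 OPM-2 myeloma cells seeded at 3000 cells/well in RPMI 1640 with 10% FBS and exposed to serially diluted compounds for 16 h at 37° C., 5% CO2.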

The structures appear in SMILES notation. pIC50: −log10 of the molar value. Like-named read-outs stand apart in the source and are kept apart here.

As usually defined, the pIC50 is the negative decadic logarithm of the IC50, by convention in mol/L. `COCCN1CCN(C[C@H]2CCC[C@H](C)[C@@H](C)S(=O)(=O)NC(=O)c3ccc4c(c3)N(C[C@@H]3CC[C@@H]23)C[C@@]2(CCCc3cc(Cl)ccc32)CO4)CCC1=O` (stereo in doubt) [Example 36]: the pIC50 was 9.58 in assay [1] and 6.35 in assay [2] (Homo sapiens, OPM-2, 16 h).

For `COCCN1CCCN(C[C@H]2CCC[C@H](C)[C@@H](C)S(=O)(=O)NC(=O)c3ccc4c(c3)N(C[C@@H]3CC[C@@H]23)C[C@@]2(CCCc3cc(Cl)ccc32)CO4)CC1=O` (stereo in doubt) [Example 42], the pIC50 was 9.39 in assay [1] and 6.23 in assay [2] (Homo sapiens, OPM-2, 16 h).

For the compound `C[C@@H]1[C@@H](C)CCC[C@H](CN2CCOCC2)[C@@H]2CC[C@H]2CN2C[C@@]3(CCCc4cc(Cl)ccc43)COc3ccc(cc32)C(=O)NS1(=O)=O` (stereo in doubt) [Example 55], the negative-log IC50 (pIC50) in assay [1] was 9.07; in assay [2] (16 h), 5.99.

For `C[C@@H]1[C@@H](C)C/C=C/[C@H](CN2CCOCC2)[C@@H]2CC[C@H]2CN2C[C@@]3(CCCc4cc(Cl)ccc43)COc3ccc(cc32)C(=O)NS1(=O)=O` (stereo in doubt) [Example 62], the pIC50 is 9.41 in assay [1] and 5.84 in assay [2] (Homo sapiens, OPM-2, 16 h).

Turning to `C[C@@H]1[C@@H](C)CCC[C@H](CN2CCN3CCNC[C@@H]3C2)[C@@H]2CC[C@H]2CN2C[C@@]3(CCCc4cc(Cl)ccc43)COc3ccc(cc32)C(=O)NS1(=O)=O` (stereo in doubt) [Example 81], the pIC50 in assay [1] was 9.08; in assay [2] (Homo sapiens, OPM-2, 16 h), 5.45.

With `C[C@@H]1[C@@H](C)CCC[C@H](C=O)[C@@H]2CC[C@H]2CN2C[C@@]3(CCCc4cc(Cl)ccc43)COc3ccc(cc32)C(=O)NS1(=O)=O` [Example 60], the pIC50 in assay [1] is 9.26; in assay [2] (16 h), 5.88.
